Starred links: 1 amine or outer side, 2 acyl side, 3 side chain; linkers in the order of their positions; H or OH if unused. Non-standard residues stand in square brackets, D forms with d. Residues, ends and D or L forms follow the SMILES beside them. *: point of attachment. Hexanoyl(5S-NH,4S-OH,6-Ph) = O=C(CC[C@H](O)[C@H](Cc1ccccc1)N[*:1])[*:2]; Sta = CC(C)C[C@H](N)[C@@H](O)CC(=O)O; Isovaleryl = CC(C)CC(=O)*; Boc = CC(C)(C)OC(=O)*
Assays:
[1] = target: cathepsin D isolated from the human liver (Homo sapiens (Human), UniProt P07339); experiment: In-vitro fluorescence assay for identification of cathepsin D inhibitors; type: biochemical; conditions: cathepsin D 1.4 nM, pH 5.5; values in E notation; read-out: Cath D IC50
cathepsin D isolated from the human liver, sequence (P07339 65-161): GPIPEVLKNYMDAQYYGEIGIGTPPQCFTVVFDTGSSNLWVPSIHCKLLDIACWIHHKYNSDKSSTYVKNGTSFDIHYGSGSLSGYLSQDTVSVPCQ
cathepsin D isolated from the human liver, sequence (P07339 169-412): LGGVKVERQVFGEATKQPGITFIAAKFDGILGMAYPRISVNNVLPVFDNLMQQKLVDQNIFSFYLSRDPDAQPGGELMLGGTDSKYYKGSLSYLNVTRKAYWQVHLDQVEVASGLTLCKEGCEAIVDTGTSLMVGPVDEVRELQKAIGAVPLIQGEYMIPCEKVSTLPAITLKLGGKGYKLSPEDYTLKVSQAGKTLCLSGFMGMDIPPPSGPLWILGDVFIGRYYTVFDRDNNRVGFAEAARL
Procedure: In order to identify modulators of cathepsin D activity, a continuous enzymatic test was carried out with a synthetic peptide which carries a fluorescent group (MCA=(7-methoxycoumarin-4-yl)acetyl) which is quenched by energy transfer from a Dpn (2,4 dinitrophenyl) group on the same molecule, in Greiner 384-well nb microtitre plates. Cleavage of the peptidic substrate by cathepsin D causes an increase in the fluorescence intensity. In order to determine the efficacy of substances, the time-dependent increase in the fluorescence intensity in the presence of the substance was compared with the time-dependent increase in fluorescence in the absence of substances. The reference substance used was pepstatin A (Sigma-Aldrich). The substrate used was MCA-GKPILFFRLK(Dnp)d-R—NH2 (Enzo Life Sciences, Lor-rach). The enzyme employed was cathepsin D isolated from the human liver (Sigma-Aldrich) in a final concentration of 1.4 nM. The test was carried out in 100 mM sodium acetate buffer, 1.25% (v/v) of DMSO, 0.25% (w/v) of Chaps, pH 5.5. 2 μl of each substance solution with serially diluted substance concentration were added to in each case 4 μl of cathepsin D solution and incubated at room temperature for 10 min. The reaction was started by addition of 2 μl of substrate solution (final concentration 5 μM). After carrying out a starting-point fluorescence measurement (excitation wavelength 340 nm/emission wavelength 450 nm) using an Envision multilabel reader (Perkin Elmer), the reaction was incubated at room temperature for 60 min. The amount of peptide fragment cleaved off during the reaction time was subsequently measured by determination of the increase in the fluorescence intensity at 450 nm (excitation wavelength 340 nm).
The IC50 values of the compounds according to the invention can be obtained from Table 2 from Example 1.

recombinant human renin = recombinant human renin (Homo sapiens (Human), UniProt P00797); experiment: In-vitro fluorescence assay for identification of renin-inhibitory activity; type: biochemical; conditions: renin 10 nM, pH 7.2
recombinant human renin, sequence (P00797 67-406): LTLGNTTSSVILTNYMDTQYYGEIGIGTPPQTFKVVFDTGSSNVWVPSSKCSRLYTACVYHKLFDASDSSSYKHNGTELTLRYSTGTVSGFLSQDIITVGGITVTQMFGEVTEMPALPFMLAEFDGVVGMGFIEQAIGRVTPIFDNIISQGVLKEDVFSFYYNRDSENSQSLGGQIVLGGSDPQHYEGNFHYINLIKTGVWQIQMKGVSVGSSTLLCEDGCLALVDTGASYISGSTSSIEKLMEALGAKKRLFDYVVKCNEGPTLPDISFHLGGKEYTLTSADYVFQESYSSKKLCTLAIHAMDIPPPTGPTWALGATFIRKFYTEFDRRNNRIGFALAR
Procedure: In order to identify modulators of renin activity, a continuous enzymatic test was carried out with a synthetic peptide which carries a fluorescent group Edans (=(5-(aminoethyl)aminonaphthalenesulfonate) which is quenched by energy transfer from a Dabcyl (4′-dimethylaminoazobenzene-4-carboxylate) group on the same molecule, in Greiner 384-well microtitre plates. Cleavage of the peptidic substrate by renin causes an increase in the fluorescence intensity. In order to determine the efficacy of substances, the time-dependent increase in the fluorescence intensity in the presence of the substance was compared with the time-dependent increase in fluorescence in the absence of substances. The reference substance used was renin inhibitor 2 (Z-Arg-Arg-Pro-Phe-His-Sta-Ile-His N-Boc-Lys methyl ester Z) (Sigma-Aldrich). The substrate used was renin FRET substrate I (DABCYL-g-Abu-Ile-His-Pro-Phe-His-Leu-Val-Ile-His-Thr EDANS) (Anaspec, Fremont Calif.). The enzyme employed was recombinant human renin (Proteos, Kalamazoo, Mich.) in a final concentration of 10 nM. The test was carried out in 50 mM Mops buffer, 1.5% (v/v) of DMSO, 0.1% (w/v) of Igepal®, pH 7.2, 0.5% (w/v) of BSA. 2 μl of each substance solution with serially diluted substance concentration were added to in each case 4 μl of renin solution and incubated at room temperature for 15 min. The reaction was started by addition of 4 μl of substrate solution (final concentration 5 μM). After carrying out a starting-point fluorescence measurement (excitation wavelength 340 nm/emission wavelength 495 nm) using an Envision multilabel reader (Perkin Elmer), the reaction was incubated at 37° C. for 60 min. The amount of peptide fragment cleaved off during the reaction time was subsequently measured by determination of the increase in the fluorescence intensity at 495 nm (excitation wavelength 340 nm).

rat knee joint = experiment: Anti-hyperalgesic effect in animals (carrageenan-injected rat knee joint, Hargreaves test); type: in vivo; conditions: intra-articular, 30 minutes before CAR
Procedure: In order to induce an inflammation reaction, a carrageenan solution (CAR, 1%, 50 μl) was injected intra-articularly on one side into a rat knee joint. The uninjected side was used for control purposes. Six animals per group were used. The threshold was determined by means of a micrometer screw (medial-lateral on the knee joint), and the thermal hyperalgesia was determined by means of a directed infrared light source by the Hargreaves method (Hargreaves et al., 1988) on the sole of the foot. […] Experimental description of thermal hyperalgesia (Hargreaves test): the experimental animal is placed in a plastic chamber on a quartz sheet. Before testing, the experimental animal is firstly given about 5-15 minutes time to familiarise itself with the environment. As soon as the experimental animal no longer moves so frequently after the familiarisation phase (end of the exploration phase), the infrared light source, whose focus is in the plane of the glass bottom, is positioned directly beneath the rear paw to be stimulated. […] Light reflected by the paw is recorded as long as the experimental animal sits still. Withdrawal of the paw interrupts this reflection, after which the infrared light source is switched off and the time from switching on to switching off is recorded. […]

[2] = system: cartilage explant cultures; conditions: pH 5.5, explant cultures; cited from earlier work

CC[C@H](C)[C@H](NC(=O)CC[C@H](O)[C@H](Cc1ccccc1)NC(=O)[C@@H](NC(=O)[C@H](CC(C)C)NC(=O)OC(C)(C)C)C(C)C)C(=O)NCc1cnc(C)nc1N [Compound A1, {(S)-1-[(S)-1-((1S,2S)-4-{(1S,2S)-1-[(4-Amino-2-methylpyrimidin-5-yl-methyl)carbamoyl]-2-methylbutylcarbamoyl}-1-benzyl-2-hydroxybutyl-carbamoyl)-2-methylpropylcarbamoyl]-3-methylbutyl}carbamic acid tert-butyl ester]
IC50 [1]: 430 nM
IC50 (recombinant human renin; values in E notation): 320 nM

CC[C@H](C)[C@H](NC(=O)CC[C@H](O)[C@H](Cc1ccccc1)NC(=O)[C@@H](NC(=O)[C@H](CC(C)C)NC(=O)OC(C)(C)C)C(C)C)C(=O)N[C@H](C(=O)OC)C(C)C [Compound A2, (S)-2-((2S,3S)-2-{(4S,5S)-5-[(S)-2-((S)-2-tert-Butoxycarbonylamino-4-methylpentanoylamino)-3-methylbutyrylamino]-4-hydroxy-6-phenyl-hexanoylamino}-3-methylpentanoylamino)-3-methylbutyric acid methyl ester] (Boc-LV[Hexanoyl(5S-NH,4S-OH,6-Ph)]IV-OMe)
IC50 [1]: 41 nM
IC50 (recombinant human renin; values in E notation): 1100 nM

COc1ccc(OC(F)(F)F)cc1CC(=O)N[C@H](C(=O)N[C@@H](Cc1ccccc1)[C@@H](O)CCC(=O)NCCc1ccccc1)C(C)C [Compound A4, (4S,5S)-4-Hydroxy-5-{(S)-2-[2-(2-methoxy-5-trifluoromethoxyphenyl)-acetylamino]-3-methylbutyrylamino}-6-phenylhexanoic acid phenethyl-amide]
IC50 [1]: 4000 nM
IC50 (recombinant human renin): > 30000 nM

CC(C)[C@H](NC(=O)Cc1cccc(Oc2ccccc2)c1)C(=O)N[C@@H](Cc1ccccc1)[C@@H](O)CCC(=O)NCCc1ccccc1 [Compound A6, (4S,5S)-4-Hydroxy-5-{(S)-3-methyl-2-[2-(3-phenoxyphenyl)acetylamino]-butyrylamino}-6-phenylhexanoic acid phenethylamide]
IC50 [1]: 12000 nM
IC50 (recombinant human renin): > 30000 nM

CC(C)[C@H](NC(=O)C(c1ccccc1)c1ccccc1)C(=O)N[C@@H](Cc1ccccc1)[C@@H](O)CCC(=O)NCCc1ccccc1 [Compound A13, (4S,5S)-5-((S)-2-Diphenylacetylamino-3-methylbutyrylamino)-4-hydroxy-6-phenylhexanoic acid phenethylamide]
IC50 [1]: 4300 nM
IC50 (recombinant human renin): > 30000 nM

COC(=O)[C@@H](NC(=O)[C@H](Cc1ccccc1)NC(=O)CC[C@H](O)[C@H](Cc1ccccc1)NC(=O)[C@@H](NC(=O)[C@H](CC(C)C)NC(=O)CC(C)C)C(C)C)C(C)C [Compound A17, (S)-2-[(S)-2-((4S,5S)-4-Hydroxy-5-{(S)-3-methyl-2-[(S)-4-methyl-2-(3-methylbutyrylamino)pentanoylamino]butyrylamino}-6-phenylhexanoyl-amino)-3-phenylpropionylamino]-3-methylbutyric acid methyl ester] (Isovaleryl-LV[Hexanoyl(5S-NH,4S-OH,6-Ph)]FV-OMe)
IC50 [1]: 255 nM
IC50 (recombinant human renin): > 30000 nM

CC(C)[C@H](NC(=O)CCCc1ccccc1)C(=O)N[C@@H](Cc1ccccc1)[C@@H](O)CCC(=O)NCCc1ccccc1 [Compound A20, (4S,5S)-4-Hydroxy-5-[(S)-3-methyl-2-(4-phenylbutyrylamino)butyryl-amino]-6-phenylhexanoic acid phenethylamide]
IC50 (recombinant human renin): > 30000 nM

CC[C@H](C)[C@H](NC(=O)CC[C@H](O)[C@H](Cc1ccccc1)NC(=O)[C@@H](NC(=O)[C@H](CC(C)C)NC(=O)CC(C)C)C(C)C)C(=O)N[C@H](C(=O)O)C(C)C [Compound A21, (S)-2-[(2S,3S)-2-((4S,5S)-4-Hydroxy-5-{(S)-3-methyl-2-[(S)-4-methyl-2-(3-methylbutyrylamino)pentanoylamino]butyrylamino}-6-phenylhexanoyl-amino)-3-methylpentanoylamino]-3-methylbutyric acid] (Isovaleryl-LV[Hexanoyl(5S-NH,4S-OH,6-Ph)]IV-OH)
IC50 [1]: 24 nM
IC50 (recombinant human renin; values in E notation): 12000 nM

CC[C@H](C)[C@H](NC(=O)CC[C@H](O)[C@H](Cc1ccccc1)NC(=O)[C@@H](NC(=O)Cc1cccc(OC(F)(F)F)c1)C(C)C)C(=O)N[C@H](C(=O)O)C(C)C [Compound A22, (S)-2-[(2S,3S)-2-((4S,5S)-4-Hydroxy-5-{(S)-3-methyl-2-[2-(3-trifluoro-methoxyphenyl)acetylamino]butyrylamino}-6-phenylhexanoylamino)-3-methylpentanoylamino]-3-methylbutyric acid]
IC50 [1]: 350 nM
IC50 (recombinant human renin): > 30000 nM

C[C@]12C=CC(=O)C=C1CC[C@H]1[C@@H]3C[C@@H](O)[C@](O)(C(=O)CO)[C@@]3(C)C[C@H](O)[C@@]12F [TAC, Triamcinolone]
reduction of CAR-induced swelling (rat knee joint): capable of reducing the CAR-induced swelling

CC(C)CC(=O)N[C@H](C(=O)N[C@H](C(=O)N[C@@H](CC(C)C)[C@@H](O)CC(=O)N[C@@H](C)C(=O)N[C@@H](CC(C)C)[C@@H](O)CC(=O)O)C(C)C)C(C)C [pepstatin] (Isovaleryl-VV[Sta]A[Sta]-OH)
inhibition of autodigestion of the cartilage [2]: inhibited virtually completely

CC(C)c1nc(CN(C)C(=O)N[C@H](C(=O)N[C@@H](Cc2ccccc2)C[C@H](O)[C@H](Cc2ccccc2)NC(=O)OCc2cncs2)C(C)C)cs1 [ritonavir]
inhibition of autodigestion of the cartilage [2]: inhibited virtually completely
